Reference: patent US20220402950A1, “SUBSTITUTED BENZIMIDAZOLES AS PAD4 INHIBITORS” (BRISTOL-MYERS SQUIBB COMPANY, priority 2018, published 2022)

Biological target: human PAD4 (hPAD4) (Homo sapiens, UniProt Q9UM07)
Test: RFMS Human PAD4 Functional Assay
Format: biochemical
Conditions: hPAD4 RFMS IC50, human PAD4, rapid-fire mass spectrum (RFMS) assay; 5 nM hPAD4, 250 μM BAEE
Outline: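 RapidFire ESI-MS quantification, normalised to a modified-citrulline internal standard, after phenyl glyoxal (final 4 mM) derivatisation of the TCA-quenched reaction. The enzyme (10 nM) sat 30 min with compound (up to 50 μM final) before 500 μM BAEE (as added) started a 90 min, 37 °C reaction. Buffer: HEPES pH 7.5, 50 μM calcium, 5 μM TPEN.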

human PAD4 (hPAD4), sequence (Q9UM07 whole entry): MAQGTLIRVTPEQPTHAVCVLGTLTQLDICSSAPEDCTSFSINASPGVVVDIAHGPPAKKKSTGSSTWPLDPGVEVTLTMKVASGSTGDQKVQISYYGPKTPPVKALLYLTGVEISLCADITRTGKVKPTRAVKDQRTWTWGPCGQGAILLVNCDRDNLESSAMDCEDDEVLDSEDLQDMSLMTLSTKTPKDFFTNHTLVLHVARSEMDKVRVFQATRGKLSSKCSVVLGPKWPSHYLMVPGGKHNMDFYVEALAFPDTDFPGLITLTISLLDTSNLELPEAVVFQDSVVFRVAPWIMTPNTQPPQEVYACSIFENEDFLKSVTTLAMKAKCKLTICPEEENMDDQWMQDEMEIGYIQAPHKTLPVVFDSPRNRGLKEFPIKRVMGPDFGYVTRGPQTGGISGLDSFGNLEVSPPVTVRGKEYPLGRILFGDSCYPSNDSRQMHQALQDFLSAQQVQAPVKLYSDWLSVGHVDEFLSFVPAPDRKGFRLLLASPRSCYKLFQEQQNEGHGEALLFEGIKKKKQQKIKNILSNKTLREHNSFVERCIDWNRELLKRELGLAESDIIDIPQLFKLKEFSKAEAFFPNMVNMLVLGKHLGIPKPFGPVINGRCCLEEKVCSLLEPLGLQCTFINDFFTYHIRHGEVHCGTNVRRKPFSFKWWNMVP

| SMILES | IC50 [nM] |
| --- | --- |
| COc1cc(C(=O)N2C[C@H]3CC[C@@H]2[C@@H]3N)cc2nc(-c3cc4cccc(-c5cn[nH]c5)c4n3CC3CC3)n(C)c12 [Example 137, ((1R,4R,7R)-7-amino-2-azabicyclo[2.2.1]heptan-2-yl)(2-(1-(cyclopropylmethyl)-7-(1H-pyrazol-4-yl)-1H-indol-2-yl)-7-methoxy-1-methyl-1H-benzo[d]imidazol-5-yl)methanone] | 37 |
| COc1cc(C(=O)N2C[C@H]3CC[C@@H]2[C@@H]3N)cc2nc(-c3cc4cccc(-c5cn(CC(C)(C)O)nc5C)c4n3CC3CC3)n(C)c12 [Example 139, ((1R,4R,7R)-7-amino-2-azabicyclo[2.2.1]heptan-2-yl)(2-(1-(cyclopropylmethyl)-7-(1-(2-hydroxy-2-methylpropyl)-3-methyl-1H-pyrazol-4-yl)-1H-indol-2-yl)-7-methoxy-1-methyl-1H-benzo[d]imidazol-5-yl)methanone] | 180 |
| COc1cc(C(=O)N2C[C@H]3CC[C@@H]2[C@@H]3N)cc2nc(-c3cc4cccc(-c5cnn(CC(C)(C)O)c5)c4n3CC3CC3)n(C)c12 [Example 140, ((1R,4R,7R)-7-amino-2-azabicyclo[2.2.1]heptan-2-yl)(2-(1-(cyclopropylmethyl)-7-(1-(2-hydroxy-2-methylpropyl)-1H-pyrazol-4-yl)-1H-indol-2-yl)-7-methoxy-1-methyl-1H-benzo[d]imidazol-5-yl)methanone] | 106 |
| COc1cc(C(=O)N2C[C@@H]3CC[C@@H]2C3N)cc2nc(-c3cc4cccc(-c5ccccc5C#N)c4n3CC3CC3)n(C)c12 (stereo partly drawn) [Example 143, 2-(2-(5-((1R,4S)-7-amino-2-azabicyclo[2.2.1]heptane-2-carbonyl)-7-methoxy-1-methyl-1H-benzo[d]imidazol-2-yl)-1-(cyclopropylmethyl)-1H-indol-7-yl)benzonitrile] | 181 |
| COc1cc(C(=O)N2C[C@H]3CC[C@@H]2[C@@H]3N)cc2nc(-c3cc4cccc(Br)c4n3CC3CC3(F)F)n(C)c12 (stereo partly drawn) [Example 146, ((1R,4R,7R)-7-amino-2-azabicyclo[2.2.1]heptan-2-yl)(2-(7-bromo-1-((2,2-difluorocyclopropyl)meth-yl)-1H-indol-2-yl)-7-methoxy-1-methyl-1H-benzo[d]imidazol-5-yl)methanone] | 52 |

Second part, the compound after the results:

| IC50 [nM] | SMILES |
| --- | --- |
| 77 | COc1cc(C(=O)N2CC3CCC2[C@@H]3N)cc2nc(-c3cc4cccc(-c5cccc(CO)c5)c4n3CC3CC3)n(C)c12 (stereo partly drawn) [Example 136, ((7R)-7-amino-2-azabicyclo[2.2.1]heptan-2-yl)(2-(1-(cyclopropylmethyl)-7-(3-(hydroxymethyl)phenyl)-1H-indol-2-yl)-7-methoxy-1-methyl-1H-benzo[d]imidazol-5-yl)methanone] |
| 147 | COc1cc(C(=O)N2C[C@H]3CC[C@@H]2[C@@H]3N)cc2nc(-c3cc4cccc(-c5cnn(C[C@@H](C)O)c5)c4n3CC3CC3)n(C)c12 [Example 138, ((1R,4R,7R)-7-amino-2-azabicyclo[2.2.1]heptan-2-yl)(2-(1-(cyclopropylmethyl)-7-(1-((R)-2-hydroxypropyl)-1H-pyrazol-4-yl)-1H-indol-2-yl)-7-methoxy-1-methyl-1H-benzo[d]imidazol-5-yl)methanone] |
| 101 | COc1cc(C(=O)N2C[C@H]3CC[C@@H]2[C@@H]3N)cc2nc(-c3cc4cccc(-c5cnn(CCO)c5)c4n3CC3CC3)n(C)c12 [Example 141, ((R,4R,7R)-7-amino-2-azabicyclo[2.2.1]heptan-2-yl)(2-(1-(cyclopropylmethyl)-7-(1-(2-hydroxyethyl)-1H-pyrazol-4-yl)-1H-indol-2-yl)-7-methoxy-1-methyl-1H-benzo[d]imidazol-5-yl)methanone] |
| 123 | COc1cc(C(=O)N2C[C@H]3CC[C@@H]2[C@@H]3N)cc2nc(-c3cc4cccc(Cl)c4n3CC3CC3)n(C)c12 [Example 145, ((1R,4R,7R)-7-amino-2-azabicyclo[2.2.1]heptan-2-yl)(2-(7-chloro-1-(cyclopropylmethyl)-1H-indol-2-yl)-7-methoxy-1-methyl-1H-benzo[d]imidazol-5-yl)methanone] |
